Key:
Format in all cases: cell-based
human TLR9 = biological target: T1, human TLR9 (Homo sapiens, UniProt Q9NR96); assay: TLR9 inhibition reporter assay (HEK-Blue cells, SEAP reporter, ODN2006 stimulation); details: HEK-Blue cells overexpressing human TLR9, SEAP reporter, ODN2006 5 nM
T1 construct: host or cells: HEK-Blue cells
T1 sequence (Q9NR96 26-1032): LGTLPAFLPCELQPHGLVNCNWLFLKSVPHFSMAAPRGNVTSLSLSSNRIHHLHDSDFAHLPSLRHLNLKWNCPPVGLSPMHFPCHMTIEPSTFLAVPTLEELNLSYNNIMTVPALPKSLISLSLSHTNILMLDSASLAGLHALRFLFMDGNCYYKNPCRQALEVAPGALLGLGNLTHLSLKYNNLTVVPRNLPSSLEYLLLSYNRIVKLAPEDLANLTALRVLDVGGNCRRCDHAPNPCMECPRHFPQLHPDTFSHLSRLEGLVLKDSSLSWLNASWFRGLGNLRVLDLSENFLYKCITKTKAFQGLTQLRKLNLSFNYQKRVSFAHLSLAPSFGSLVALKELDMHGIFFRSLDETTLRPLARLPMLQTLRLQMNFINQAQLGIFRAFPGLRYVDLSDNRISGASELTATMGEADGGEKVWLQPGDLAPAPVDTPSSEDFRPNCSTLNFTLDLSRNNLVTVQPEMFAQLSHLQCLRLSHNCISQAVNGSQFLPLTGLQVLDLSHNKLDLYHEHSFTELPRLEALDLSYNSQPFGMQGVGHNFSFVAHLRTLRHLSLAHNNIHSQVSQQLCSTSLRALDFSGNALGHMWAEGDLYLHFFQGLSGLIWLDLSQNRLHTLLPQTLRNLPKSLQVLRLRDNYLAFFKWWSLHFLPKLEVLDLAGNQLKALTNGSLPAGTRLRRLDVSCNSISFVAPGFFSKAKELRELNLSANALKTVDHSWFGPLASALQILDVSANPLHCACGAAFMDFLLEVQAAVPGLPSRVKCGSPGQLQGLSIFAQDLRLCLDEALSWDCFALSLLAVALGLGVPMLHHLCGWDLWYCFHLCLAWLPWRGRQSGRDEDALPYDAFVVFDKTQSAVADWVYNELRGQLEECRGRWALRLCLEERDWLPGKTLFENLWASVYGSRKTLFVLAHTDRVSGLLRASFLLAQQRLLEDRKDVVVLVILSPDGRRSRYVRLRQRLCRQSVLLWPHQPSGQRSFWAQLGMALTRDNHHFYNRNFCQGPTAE
How it was run: (§1)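 Dose range 0.05 nM–50 μM; 30 min preincubation, RT. Agonists: TLR7 gardiquimod 7.5 μM, TLR8 R848 15.9 μM, TLR9 ODN2006 5 nM. 22 h, 37 °C, 5% CO2. SEAP (IFN-β minimal promoter with NF-κB/AP-1 sites) via colorimetric detection medium; % inhibition vs agonist+DMSO and reference-inhibitor wells.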

human TLR7 = biological target: T2, human TLR7 (Homo sapiens, UniProt Q9NYK1); assay: TLR7 inhibition reporter assay (HEK-Blue cells, SEAP reporter, gardiquimod stimulation); details: HEK-Blue cells overexpressing human TLR7, SEAP reporter, gardiquimod 7.5 μM
T2 construct: host or cells: HEK-Blue cells
T2 sequence (Q9NYK1 27-1049): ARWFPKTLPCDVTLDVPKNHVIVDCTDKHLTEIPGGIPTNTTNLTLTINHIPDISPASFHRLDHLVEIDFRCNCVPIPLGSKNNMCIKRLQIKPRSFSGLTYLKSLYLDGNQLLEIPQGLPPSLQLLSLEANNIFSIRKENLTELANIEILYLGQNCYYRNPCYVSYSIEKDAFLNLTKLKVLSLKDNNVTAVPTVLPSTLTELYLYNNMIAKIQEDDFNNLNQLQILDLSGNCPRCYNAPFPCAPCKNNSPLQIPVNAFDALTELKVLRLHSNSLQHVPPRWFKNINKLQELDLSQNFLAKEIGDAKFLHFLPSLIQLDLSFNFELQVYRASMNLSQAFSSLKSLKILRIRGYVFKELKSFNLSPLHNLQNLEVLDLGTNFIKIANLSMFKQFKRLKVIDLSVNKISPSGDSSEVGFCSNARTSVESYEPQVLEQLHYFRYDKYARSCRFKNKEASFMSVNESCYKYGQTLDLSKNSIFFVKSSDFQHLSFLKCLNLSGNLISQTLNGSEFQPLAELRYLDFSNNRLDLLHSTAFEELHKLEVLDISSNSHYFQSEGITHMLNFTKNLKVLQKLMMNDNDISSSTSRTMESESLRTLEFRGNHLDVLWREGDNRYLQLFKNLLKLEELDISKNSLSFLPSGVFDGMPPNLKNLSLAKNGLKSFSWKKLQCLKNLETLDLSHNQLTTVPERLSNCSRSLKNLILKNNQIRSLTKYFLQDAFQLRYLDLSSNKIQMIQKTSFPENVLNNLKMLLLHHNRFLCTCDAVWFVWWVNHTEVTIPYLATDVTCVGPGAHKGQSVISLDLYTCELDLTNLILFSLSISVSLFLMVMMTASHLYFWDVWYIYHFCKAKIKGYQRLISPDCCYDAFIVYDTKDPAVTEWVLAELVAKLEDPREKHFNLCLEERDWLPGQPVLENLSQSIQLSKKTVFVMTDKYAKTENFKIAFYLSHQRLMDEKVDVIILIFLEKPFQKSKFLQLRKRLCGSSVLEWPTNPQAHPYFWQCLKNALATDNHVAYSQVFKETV
How it was run: as §1

human TLR8 = biological target: T3, human TLR8 (Homo sapiens, UniProt Q9NR97); assay: TLR8 inhibition reporter assay (HEK-Blue cells, SEAP reporter, R848 stimulation); details: HEK-Blue cells overexpressing human TLR8, SEAP reporter, R848 15.9 μM
T3 construct: host or cells: HEK-Blue cells
T3 sequence (Q9NR97 27-1041): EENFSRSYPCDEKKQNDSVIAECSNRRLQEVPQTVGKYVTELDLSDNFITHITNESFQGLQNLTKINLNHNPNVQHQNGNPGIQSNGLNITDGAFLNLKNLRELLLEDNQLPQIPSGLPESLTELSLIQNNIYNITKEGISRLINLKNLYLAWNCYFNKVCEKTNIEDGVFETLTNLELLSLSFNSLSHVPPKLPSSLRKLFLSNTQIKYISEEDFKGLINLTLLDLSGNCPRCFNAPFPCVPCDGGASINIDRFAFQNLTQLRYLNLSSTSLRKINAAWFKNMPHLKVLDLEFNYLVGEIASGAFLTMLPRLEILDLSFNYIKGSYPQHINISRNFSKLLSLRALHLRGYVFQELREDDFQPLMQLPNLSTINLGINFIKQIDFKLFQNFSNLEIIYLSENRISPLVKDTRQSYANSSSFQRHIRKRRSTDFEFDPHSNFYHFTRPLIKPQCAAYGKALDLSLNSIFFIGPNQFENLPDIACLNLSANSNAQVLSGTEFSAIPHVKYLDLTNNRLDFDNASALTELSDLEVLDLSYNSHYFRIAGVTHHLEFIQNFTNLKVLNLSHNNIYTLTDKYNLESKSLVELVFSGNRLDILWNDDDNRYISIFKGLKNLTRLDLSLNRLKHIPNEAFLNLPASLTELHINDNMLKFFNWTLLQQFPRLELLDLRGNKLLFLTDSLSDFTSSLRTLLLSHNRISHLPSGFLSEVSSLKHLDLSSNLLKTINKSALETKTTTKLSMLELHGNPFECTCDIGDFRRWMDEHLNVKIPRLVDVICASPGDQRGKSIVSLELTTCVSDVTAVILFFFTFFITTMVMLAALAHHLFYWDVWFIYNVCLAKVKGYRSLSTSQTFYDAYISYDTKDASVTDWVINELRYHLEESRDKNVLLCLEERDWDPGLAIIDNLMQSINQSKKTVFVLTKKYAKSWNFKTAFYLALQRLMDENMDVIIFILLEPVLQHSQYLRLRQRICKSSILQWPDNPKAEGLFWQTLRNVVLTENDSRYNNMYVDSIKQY
How it was run: as §1

SMILES | IC50 (human TLR9) [µM] | IC50 (human TLR7) [µM] | IC50 (human TLR8) [µM]
CCc1c(-c2ccnc(C)c2)[nH]c2ccc(CNC(=O)OCC3CCNCC3)cc12 [Example 449] | 0.48 | 1.6 | 0.228
Cc1c(-c2[nH]c3ccc(C4CN(CC(=O)N(C)C)C4)cc3c2C(C)C)cn(C)c(=O)c1C [Example 489] | 14.9 | 0.128 | 0.02
COc1cc(-c2[nH]c3ccc(C4CCC(NC(=O)CC(F)(F)F)CC4)cc3c2C(C)C)cn2ncnc12 (stereo not drawn) [Example 118, 3,3,3-trifluoro-N-(4-(3-isopropyl-2-(8-methoxy-[1,2,4]triazolo[1,5-a]pyridin-6-yl)-1H-indol-5-yl)cyclohexyl)propanamide] | 15.6 | 0.002 | 0.022
COc1cc(-c2[nH]c3ccc(C4CCC(NC(C)=O)CC4)cc3c2C(C)C)cn2ncnc12 (single isomer, unassigned) [Example 115, N-(4-(3-isopropyl-2-(8-methoxy-[1,2,4]triazolo[1,5-a]pyridin-6-yl)-1H-indol-5-yl)cyclohexyl)acetamide] | 16.1 | 0.001 | 0.013
Cc1c(-c2[nH]c3ccc(C4CCC(NC(=O)CN(C)C)CC4)cc3c2C(C)C)cn2ncnc2c1C (stereo not drawn) [Example 124] | 8.18 | 0.009 | 0.012
Cc1cc(-c2[nH]c3ccc([C@H]4C[C@H]4C(=O)NC4CCC5CNCC54)cc3c2C(C)C)ccn1 (stereo partly drawn) [Example 457] | 0.646 | 0.189 | 0.05
Cc1c(-c2[nH]c3ccc(C4CCC(NCC(=O)N(C)C)CC4)cc3c2C(C)C)cn(C)c(=O)c1C (stereo not drawn) [Example 479] | 8.61 | 0.005 | 0.0041
Cc1cc(-c2[nH]c3ccc(C4CN(CC(C)(C)O)C(C)(C)CO4)cc3c2C(C)C)cn2ncnc12 (stereo not drawn) [Example 385] | 20.4 | 0.014 | 0.048
COc1cc(-c2[nH]c3ccc(C4CC(N(C)CCS(C)(=O)=O)C4)cc3c2C(C)C)cn2ncnc12 (stereo not drawn) [Example 583] | 31 | 0.00099 | 0.00032
Cc1c(-c2[nH]c3ccc(C4CCCN(CC(=O)N(C)C)C4)cc3c2C(C)C)cn2ncnc2c1C (stereo not drawn) [Example 226] | 9.77 | 0.017 | 0.0074
Cc1c(-c2[nH]c3ccc(C4CCC(N(C)CCS(C)(=O)=O)CC4)cc3c2C(C)C)cn2ncnc2c1C (stereo not drawn) [Example 151] | 3.34 | 0.00062 | 0.00037

Source: patent US11878975B2, “Substituted indole compounds useful as TLR inhibitors” (BRISTOL-MYERS SQUIBB COMPANY, priority 2017, dated 2024)
